Results reported in patent USRE48335E1, “Polymyxin derivatives as antimicrobial compounds” (priority 2014, dated 2020).
Values after ≈ are worked out from the molar mass of the structure shown. Positions of bridges follow the written chain, without caps; N, C: chain ends. Non-standard residues stand in square brackets, D forms with d. Residues, ends and D or L forms follow the SMILES beside them. *: point of attachment. Benzoyl(3,5-Cl2) = O=C(c1cc(Cl)cc(Cl)c1)*; Phenylacetyl(3-Cl) = O=C(Cc1cccc(Cl)c1)*; Benzoyl(3-Cl) = O=C(c1cccc(Cl)c1)*; X4 = O=C(c1ccc(Cl)c(Cl)c1)*; X3 = O=C(c1ccc(Cl)cc1Cl)*; Dab = NCC[C@H](N)C(=O)O; Abu = CC[C@H](N)C(=O)O; Dap = NC[C@H](N)C(=O)O

Experiments:
[1] = Nephrotoxicity in a mouse model (kidney histology score); assay type: in vivo; details: mice, subcutaneous 12 mg base/kg, 6 doses in one day every 2 h; for Max Overall Kidney Histology Score: kidney ~20 h after last dose, product of percentage score and grade score; for Max Kidney Histology Score: semiquantitative score (SQS) 0 to +5
Protocol: PMB sulphate (Batch 20120204) and colistin sulphate (Batch 20120719) were supplied by Betapharma (Shanghai Co., Ltd, China). […] At ˜20 h after the last dose, mice were euthanised by inhalation of an overdose of isoflurane. […] The formalin-fixed kidneys were then sent to the Australian Phenomics Network-Histopathology and Organ Pathology (The University of Melbourne, Parkville, VIC, Australia) for histological examination. The samples were examined by a pathologist who was blind to the treatment groups. Lesions were rated as follows: mild acute tubular damage with tubular dilation, prominent nuclei and a few pale […] tubular casts (Grade 1); severe acute tubular damage with necrosis of tubular epithelial cells and numerous tubular casts (Grade 2); acute cortical necrosis/infarction of tubules and glomeruli with or without papillary necrosis (Grade 3). […] The overall kidney histology score was calculated as the product of percentage score and grade score. […] These scores were assigned as follows: […] SQS+3=moderate damage (overall score, 30 to <45); […]

Pseudomonas aeruginosa = details: for MIC: P. aeruginosa ATCC 27853; for Minimum inhibitory concentration, Pa ATCC 27853: Pseudomonas aeruginosa ATCC 27853; for Minimum inhibitory concentration, Pa ATCC 27853 / Minimum inhibitory concentration, Pa FADDI-PA022 / Minimum inhibitory concentration, Pa FADDI-PA025: broth microdilution in CAMHB; for Minimum inhibitory concentration, Pa FADDI-PA022: Pseudomonas aeruginosa FADDI-PA022; for Minimum inhibitory concentration, Pa FADDI-PA025: Pseudomonas aeruginosa FADDI-PA025
In short: (§1)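 Broth microdilution MICs following CLSI standards in cation-adjusted Mueller-Hinton broth. Lipopeptides tested as TFA salts; polymyxin B sulphate served as control.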

Enterobacter cloacae = details: broth microdilution in CAMHB; for Minimum inhibitory concentration, Ec FADDI-EC001: Enterobacter cloacae FADDI-EC001; for Minimum inhibitory concentration, Ec FADDI-EC003: Enterobacter cloacae FADDI-EC003; for Minimum inhibitory concentration, Ec FADDI-EC006: Enterobacter cloacae FADDI-EC006
In short: as §1

Klebsiella pneumoniae = details: K. pneumoniae FADDI-KP032
In short: as §1

Acinetobacter baumannii = details: for MIC: A. baumannii ATCC 19606; for Minimum inhibitory concentration, Ab A ATCC 17978: Acinetobacter baumannii ATCC 17978; for Minimum inhibitory concentration, Ab A ATCC 17978 / Minimum inhibitory concentration, Ab ATCC 19606 / Minimum inhibitory concentration, Ab FADDI-AB034: broth microdilution in CAMHB; for Minimum inhibitory concentration, Ab ATCC 19606: Acinetobacter baumannii ATCC 19606; for Minimum inhibitory concentration, Ab FADDI-AB034: Acinetobacter baumannii FADDI-AB034
In short: as §1

P. aeruginosa ATCC 27853 = experiment: In vivo efficacy in mouse blood infection model (neutropenic Swiss mice); details: compound, free base 4 mg/kg intravenously 2 h after inoculation, blood at 4 h
In short: (§2)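 Neutropenic Swiss mice (cyclophosphamide 150 mg/kg day −4, 100 mg/kg day −1, i.p.) infected i.v. with early log-phase bacteria; 4 mg/kg free base i.v. given 2 h post-inoculation. Blood CFU by cardiac puncture 4 h post-dose; Δlog10 CFU/mL treated versus saline controls.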

A. baumannii ATCC 19606 = experiment: as above; details: compound, free base 4 mg/kg intravenously 2 h after inoculation, blood at 4 h
In short: as §2

[2] = tested on: K. pneumoniae FADDI-KP032; experiment: as above; details: compound, free base 4 mg/kg intravenously 2 h after inoculation, blood at 4 h
In short: as §2

Compound	Max Overall Kidney Histology Score [1]	Max Kidney Histology Score [1]	MIC (Pseudomonas aeruginosa) [µg/mL]	Minimum inhibitory concentration, Pa ATCC 27853 (Pseudomonas aeruginosa) [µg/mL]	Minimum inhibitory concentration, Pa FADDI-PA022 (Pseudomonas aeruginosa) [µg/mL]	Minimum inhibitory concentration, Pa FADDI-PA025 (Pseudomonas aeruginosa) [µg/mL]	Minimum inhibitory concentration, Ec FADDI-EC001 (Enterobacter cloacae) [µg/mL]	Minimum inhibitory concentration, Ec FADDI-EC003 (Enterobacter cloacae) [µg/mL]	Minimum inhibitory concentration, Ec FADDI-EC006 (Enterobacter cloacae) [µg/mL]	MIC (Klebsiella pneumoniae) [µg/mL]	MIC (Acinetobacter baumannii) [µg/mL]	Minimum inhibitory concentration, Ab A ATCC 17978 (Acinetobacter baumannii) [µg/mL]	Minimum inhibitory concentration, Ab ATCC 19606 (Acinetobacter baumannii) [µg/mL]	Minimum inhibitory concentration, Ab FADDI-AB034 (Acinetobacter baumannii) [µg/mL]	Δ log (Treated-Control at 4 h) (P. aeruginosa ATCC 27853) [log10 CFU/mL]	Δ log (Treated-Control at 4 h) (A. baumannii ATCC 19606) [log10 CFU/mL]	Δ log (Treated-Control at 4 h) [2] [log10 CFU/mL]
CC[C@@H]1NC(=O)[C@@H](CC(C)C)NC(=O)[C@H](CCN)NC(=O)[C@@H](NC(=O)[C@H](CN)NC(=O)[C@@H](NC(=O)[C@H](CCN)NC(=O)Cc2cccc(Cl)c2)[C@@H](C)O)CCNC(=O)[C@H]([C@@H](C)O)NC(=O)[C@H](CCN)NC(=O)[C@H](CCN)NC1=O [Compound 79] ({Phenylacetyl(3-Cl)}-[Dab]T[Dap][Dab][Dab][dL][Abu][Dab][Dab]T; lactam 4-C)	5.0	+1 (SQS+1=mild damage (overall score, 1 to <15))	0.5 (≈ 0.439 µM)	0.5 (≈ 0.439 µM)	1 (≈ 0.877 µM)	1 (≈ 0.877 µM)	0.25 (≈ 0.219 µM)	<0.125	2 (≈ 1.75 µM)	<0.125	1 (≈ 0.877 µM)	0.5 (≈ 0.439 µM)	1 (≈ 0.877 µM)	1 (≈ 0.877 µM)	−2.28		
CC[C@@H]1NC(=O)[C@@H](CC(C)C)NC(=O)[C@H](CCN)NC(=O)[C@@H](NC(=O)[C@H](CN)NC(=O)[C@@H](NC(=O)[C@H](CCN)NC(=O)c2cccc(Cl)c2)[C@@H](C)O)CCNC(=O)[C@H]([C@@H](C)O)NC(=O)[C@H](CCN)NC(=O)[C@H](CCN)NC1=O [Compound 88] ({Benzoyl(3-Cl)}-[Dab]T[Dap][Dab][Dab][dL][Abu][Dab][Dab]T; lactam 4-C)	0.0	0 (SQS 0=no significant change (overall score, <1))	0.5 (≈ 0.444 µM)	0.5 (≈ 0.444 µM)	1 (≈ 0.888 µM)	2 (≈ 1.78 µM)	1 (≈ 0.888 µM)	0.25 (≈ 0.222 µM)	0.5 (≈ 0.444 µM)	0.5 (≈ 0.444 µM)	2 (≈ 1.78 µM)	0.5 (≈ 0.444 µM)	2 (≈ 1.78 µM)	0.5 (≈ 0.444 µM)	−3.33	−2.46	
CC[C@@H]1NC(=O)[C@@H](CC(C)C)NC(=O)[C@H](CCN)NC(=O)[C@@H](NC(=O)[C@H](CN)NC(=O)[C@@H](NC(=O)[C@H](CCN)NC(=O)c2ccc(Cl)c(Cl)c2)[C@@H](C)O)CCNC(=O)[C@H]([C@@H](C)O)NC(=O)[C@H](CCN)NC(=O)[C@H](CCN)NC1=O [Compound 71] (X4-[Dab]T[Dap][Dab][Dab][dL][Abu][Dab][Dab]T; lactam 4-C)	0.0	0 (SQS 0=no significant change (overall score, <1))	0.5 (≈ 0.431 µM)	0.5 (≈ 0.431 µM)	4 (≈ 3.45 µM)	1 (≈ 0.862 µM)	1 (≈ 0.862 µM)	0.25 (≈ 0.215 µM)	1 (≈ 0.862 µM)	0.5 (≈ 0.431 µM)	0.5 (≈ 0.431 µM)	0.25 (≈ 0.215 µM)	0.5 (≈ 0.431 µM)	0.25 (≈ 0.215 µM)	−4.04	−1.82	−2.98
CC[C@@H]1NC(=O)[C@@H](CC(C)C)NC(=O)[C@H](CCN)NC(=O)[C@@H](NC(=O)[C@H](CN)NC(=O)[C@@H](NC(=O)[C@H](CCN)NC(=O)c2cc(Cl)cc(Cl)c2)[C@@H](C)O)CCNC(=O)[C@H]([C@@H](C)O)NC(=O)[C@H](CCN)NC(=O)[C@H](CCN)NC1=O [Compound 96] ({Benzoyl(3,5-Cl2)}-[Dab]T[Dap][Dab][Dab][dL][Abu][Dab][Dab]T; lactam 4-C)	2.0	+1 (SQS+1=mild damage (overall score, 1 to <15))	0.25 (≈ 0.215 µM)	0.25 (≈ 0.215 µM)	0.25 (≈ 0.215 µM)	0.5 (≈ 0.431 µM)	1 (≈ 0.862 µM)	1 (≈ 0.862 µM)	0.5 (≈ 0.431 µM)	<0.125	0.5 (≈ 0.431 µM)	0.25 (≈ 0.215 µM)	0.5 (≈ 0.431 µM)	0.25 (≈ 0.215 µM)	−3.45	−2.42	−2.75
CC[C@@H]1NC(=O)[C@@H](CC(C)C)NC(=O)[C@H](CCN)NC(=O)[C@@H](NC(=O)[C@H](CN)NC(=O)[C@@H](NC(=O)[C@H](CCN)NC(=O)c2ccc(Cl)cc2Cl)[C@@H](C)O)CCNC(=O)[C@H]([C@@H](C)O)NC(=O)[C@H](CCN)NC(=O)[C@H](CCN)NC1=O [Compound 82] (X3-[Dab]T[Dap][Dab][Dab][dL][Abu][Dab][Dab]T; lactam 4-C)	0.0	0 (SQS 0=no significant change (overall score, <1))	0.5 (≈ 0.431 µM)	0.5 (≈ 0.431 µM)	0.5 (≈ 0.431 µM)	1 (≈ 0.862 µM)	<0.125	<0.125	<0.125	<0.125	0.5 (≈ 0.431 µM)	0.5 (≈ 0.431 µM)	0.5 (≈ 0.431 µM)	0.25 (≈ 0.215 µM)	−3.44	−1.44	−3.33
